Marks after values point to notes of the source that are not given here.
Experiments:
[1] = target: T1, human estrogen receptor α (hERα) (Homo sapiens, UniProt P03372); test: antagonistic activity in CHO cells co-transfected with hERα, rat oxytocin promoter and luciferase reporter gene; type: cell-based; conditions: antagonism of 17β-estradiol-induced transactivation, CHO-hERα-RO-LUC; read-out: ERα pIC50 (converted)
T1 sequence (P03372 1-595): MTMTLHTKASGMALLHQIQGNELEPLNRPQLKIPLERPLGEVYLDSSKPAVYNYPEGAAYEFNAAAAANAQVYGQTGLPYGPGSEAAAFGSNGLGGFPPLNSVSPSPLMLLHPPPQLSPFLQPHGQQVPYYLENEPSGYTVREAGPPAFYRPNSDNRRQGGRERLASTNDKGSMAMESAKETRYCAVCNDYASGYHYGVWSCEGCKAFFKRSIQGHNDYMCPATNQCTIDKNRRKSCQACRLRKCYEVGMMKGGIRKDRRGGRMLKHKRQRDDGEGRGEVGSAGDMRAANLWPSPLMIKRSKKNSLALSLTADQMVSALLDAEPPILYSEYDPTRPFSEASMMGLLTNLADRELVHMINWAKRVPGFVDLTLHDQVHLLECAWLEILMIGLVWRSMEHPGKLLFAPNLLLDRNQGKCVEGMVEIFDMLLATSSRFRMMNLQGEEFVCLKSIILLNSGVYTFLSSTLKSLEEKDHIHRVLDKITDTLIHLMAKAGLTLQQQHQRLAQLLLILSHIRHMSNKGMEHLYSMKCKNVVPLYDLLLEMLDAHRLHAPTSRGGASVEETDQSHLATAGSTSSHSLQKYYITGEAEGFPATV
Method: The antagonistic activity of compounds on the estrogen receptors was determined in an in vitro bioassay with recombinant Chinese Hamster Ovary (CHO) cells stably co-transfected with the human estrogen receptor α (hERα), the rat oxytocin promoter (RO) and the luciferase reporter gene (LUC). […] The antagonistic efficacy, i.e. the amount of maximal inhibition of the 17β-estradiol activated receptor by a compound, is expressed as fraction relative to the maximal inhibition as induced by the standard anti-estrogen ICI 164,384 (efficacy test compound=(maximal inhibition test compound/maximal inhibition ICI 164,384)). A more detailed description of the methodology can be found in De Gooyer et al., Steroids, 68 (2003) 21-30.

estrogen receptor alpha = target: T2, estrogen receptor alpha (Homo sapiens, UniProt P03372); test: ERα downregulation assay in T47D breast cancer cells (ERα ELISA); type: cell-based; conditions: downregulation of ERα relative to fulvestrant (100%), 1E-5 M, 24 hours, negative = upregulation
T2 construct: endogenous in cells; host or cells: T47D human breast cancer cells (ATCC)
T2 sequence (P03372 1-595): T1 sequence (P03372 1-595)
Source text: More specifically, this in vitro bioassay is used to determine the efficacy (fraction of maximal response) of the compound by comparing the data for this compound with those of the reference compound ICI 182,780 (fulvestrant) in the same test (downregulation of fulvestrant is 100% by definition).
A more detailed description of the method used is as follows.
Cell culture. The human epithelial breast cancer cell line T47D (origin: ATCC) was routinely maintained in a 1:1 mixture of Ham's F12 medium and Dulbecco's Modified Eagle Medium (Gibco) enriched with 5% fetal calf serum (Hyclone), 10 mM HEPES pH 7.5 and 100 μg/ml penicillin-streptomycin solution. Cells were grown in 80 cm2 culture flasks (Nunc, Roskilde, Denmark) and kept in an atmosphere of 5% CO2-95% air at 37 degrees Celsius. Cells were subcultured when they reached about 80-90% confluence, resulting in one passage a week. Subculturing includes detaching the cells using Cell Dissociation Buffer [Sigma] and subsequent inoculation at 1:5 or 1:10 in a new Roux flask (175 cc) and\or plating out in Nunclon™ Surface 96 wells microplates. The culture medium needs to be refreshed on day three or four of the incubation, if applicable.
Determination of ERα protein levels: T47D cells in the microplates are incubated with 1E-5 M test compound for 24 hours. The supernatant in all wells is carefully aspirated. Cells are lysed on the microplate and cell lysates are probed for ERα content using an ERα ELISA assay kit (Active Motif).

Row | Structure (SMILES) | IC50 [1] [nM] | DR (%) (estrogen receptor alpha)
1 | Cl.Oc1ccc(-c2onc(-c3ccccc3Cl)c2-c2ccc(OC3CN(CC4CCOC4)C3)cc2)cc1 (centres unmarked) [compound 7x, 4-(3-(2-chlorophenyl)-4-(4-(1-((tetrahydrofuran-3-yl)methyl)azetidin-3-yloxy)-phenyl)isoxazol-5-yl)phenol hydrochloride] | 0.501 | 66%
2 | CCCN1CC(Oc2ccc(C(=O)c3c(-c4ccc(O)cc4C)sc4cc(O)ccc34)cc2)C1.Cl [compound 7q, (6-hydroxy-2-(4-hydroxy-2-methylphenyl)benzo[b]thiophen-3-yl)(4-(1-propylazetidin-3-yloxy)phenyl)methanone hydrochloride] | 1.26 | 64%
3 | O=C(O)C(F)(F)F.O=C(c1ccc(OC2CN(C3CC3)C2)cc1)c1c(-c2ccc(O)cc2)sc2cc(O)ccc12 [compound 7i, (4-(1-cyclopropylazetidin-3-yloxy)phenyl)(6-hydroxy-2-(4-hydroxyphenyl)-benzo[b]thiophen-3-yl)methanone 2,2,2-trifluoroacetate] | 2.51 | 66%
4 | CCCN1CC(Oc2ccc(C(=O)c3c(-c4ccccc4)noc3-c3ccc(O)cc3)cc2)C1.Cl [compound 7ai, (5-(4-hydroxyphenyl)-3-phenylisoxazol-4-yl)(4-(1-propylazetidin-3-yloxy)-phenyl)methanone hydrochloride] | 7.94 | 96%
5 | CCCN1CC(Oc2ccc(C(OC)c3c(-c4ccccc4Cl)noc3-c3ccc(O)cc3)cc2)C1 (centres unmarked) [compound 7aw, 4-(3-(2-chlorophenyl)-4-(methoxy(4-(1-propylazetidin-3-yloxy)phenyl)methyl)-isoxazol-5-yl)phenol] | 7.94 | 64%
6 | CCCN1CC(Oc2ccc(C(=O)c3c(-c4sccc4C)noc3-c3ccc(O)cc3)cc2)C1.Cl [compound 7an, (5-(4-hydroxyphenyl)-3-(3-methylthiophen-2-yl)isoxazol-4-yl)(4-(1-propylazetidin-3-yloxy)phenyl)methanone hydrochloride] | 2 | 98%
7 | CCCN1CC(Oc2ccc(-c3c(-c4snnc4C)noc3-c3ccc(O)cc3)cc2)C1.Cl [compound 7ae, 4-(3-(4-methyl-1,2,3-thiadiazol-5-yl)-4-(4-(1-propylazetidin-3-yloxy)phenyl)isoxazol-5-yl)phenol hydrochloride] | 12.6 | 99%
8 | CCCN1CC(Oc2ccc(C(=O)c3c(-c4ccccc4C)noc3-c3ccc(O)cc3)cc2)C1.Cl [compound 7aj, (5-(4-hydroxyphenyl)-3-o-tolylisoxazol-4-yl)(4-(1-propylazetidin-3-yloxy)-phenyl)methanone hydrochloride] | 3.16 | 100%
9 | Cl.O=C(c1ccc(OC2CN(CCC(F)(F)F)C2)cc1)c1c(-c2ccc(O)cc2)sc2cc(O)ccc12 [compound 7p, (6-hydroxy-2-(4-hydroxyphenyl)benzo[b]thiophen-3-yl)(4-(1-(3,3,3-trifluoropropyl)azetidin-3-yloxy)phenyl)methanone hydrochloride] | 5.01 | 35%
10 | CCCN1CC(Oc2ccc(C(=O)c3c(-c4ccc(O)cc4)sc4cc(O)ccc34)cc2F)C1.Cl [compound 7u, (3-fluoro-4-(1-propylazetidin-3-yloxy)phenyl)(6-hydroxy-2-(4-hydroxyphenyl)-benzo[b]thiophen-3-yl)methanone hydrochloride] | 0.794 | 78%
11 | Cl.O=C(c1ccc(OC2CN(C3CCC3)C2)cc1)c1c(-c2ccc(O)cc2)sc2cc(O)ccc12 [compound 7l, (4-(1-cyclobutylazetidin-3-yloxy)phenyl)(6-hydroxy-2-(4-hydroxyphenyl)-benzo[b]thiophen-3-yl)methanone hydrochloride] | 0.794 | 30%
12 | CCCN1CC(Oc2ccc(C(=C(Cl)c3ccccc3)c3ccccc3)cc2)C1 (mixture of isomers) [compound 6x, (E/Z)-3-(4-(2-chloro-1,2-diphenylvinyl)phenoxy)-1-propylazetidine 2,2,2-trifluoroacetate] | 7.94 | 63%
13 | CCCN1CC(Oc2ccc(Oc3c(-c4ccc(O)cc4)sc4cc(O)ccc34)cc2)C1.O=C(O)C(F)(F)F [compound 6c, 2-(4-hydroxyphenyl)-3-(4-(1-propylazetidin-3-yloxy)phenoxy)benzo[b]thiophen-6-ol 2,2,2-trifluoroacetate] | 0.251 | 7 ^(c) %
14 | CCCN1CC(Oc2ccc(C(=O)c3c(-c4ccc(O)c(C)c4)sc4cc(O)ccc34)cc2)C1.Cl [compound 7r, (6-hydroxy-2-(4-hydroxy-3-methylphenyl)benzo[b]thiophen-3-yl)(4-(1-propylazetidin-3-yloxy)phenyl)methanone hydrochloride] | 2 | 94%
15 | CCCN1CC(Oc2ccc(C(=O)c3c(-c4ccccc4Cl)noc3-c3ccc(N)cc3)cc2)C1.O=C(O)C(F)(F)F [compound 7ar, (5-(4-aminophenyl)-3-(2-chlorophenyl)isoxazol-4-yl)(4-(1-propylazetidin-3-yl-oxy)phenyl)methanone 2,2,2-trifluoroacetate] | 20 | 82%
16 | CCCN1CC(Oc2ccc([C@H]3c4ccc(OC)cc4OC(C)(C)[C@@H]3c3ccccc3)cc2)C1.O=C(O)C(F)(F)F [compound 6o, 3-(4-((3S,4S)-7-methoxy-2,2-dimethyl-3-phenylchroman-4-yl)phenoxy)-1-propylazetidine 2,2,2-trifluoroacetate] | 25.1 | 75%
17 | CCCN1CC(Oc2ccc(C(=O)c3c(-c4ccccc4Cl)noc3-c3cc[nH]c3)cc2)C1.O=C(O)C(F)(F)F [compound 7aq, (3-(2-chlorophenyl)-5-(1H-pyrrol-3-yl)isoxazol-4-yl)(4-(1-propylazetidin-3-yl-oxy)phenyl)methanone 2,2,2-trifluoroacetate] | 25.1 | 78%
18 | CCCN1CC(Oc2ccc(C(=O)c3c(-c4ccccc4Cl)noc3-c3ccc(O)cc3)cc2F)C1.Cl [compound 7at, (3-(2-chlorophenyl)-5-(4-hydroxyphenyl)isoxazol-4-yl)(3-fluoro-4-(1-propylazetidin-3-yloxy)phenyl)methanone hydrochloride] | 1.58 | 101%
19 | CC(C)CN1CC(Oc2ccc(C(=O)c3c(-c4ccc(O)cc4)sc4cc(O)ccc34)cc2)C1.Cl [compound 7m, (6-hydroxy-2-(4-hydroxyphenyl)benzo[b]thiophen-3-yl)(4-(1-isobutylazetidin-3-yloxy)phenyl)methanone hydrochloride] | 1 | 73%
20 | CCCN1CC(Oc2ccc(C(=C(CC)c3ccccc3)c3ccc(O)cc3)cc2)C1 (mixture of isomers) [compound 6v, (E/Z)-4-(2-phenyl-1-(4-(1-propylazetidin-3-yloxy)phenyl)but-1-enyl)phenol 2,-2,2-trifluoroacetate] | 0.501 | −5 ^(d) %
21 | O=C(O)C(F)(F)F.O=C(c1ccc(OC2CN(CCCF)C2)cc1)c1c(-c2ccc(O)cc2)sc2cc(O)ccc12 [compound 7j, (4-(1-(3-fluoropropyl)azetidin-3-yloxy)phenyl)(6-hydroxy-2-(4-hydroxyphenyl)benzo[b]thiophen-3-yl)methanone 2,2,2-trifluoroacetate] | 2.51 | 98%
22 | Cl.O=C(c1ccc(OC2CN(CC3CCOC3)C2)cc1)c1c(-c2ccc(O)cc2)sc2cc(O)ccc12 (centres unmarked) [compound 7o, (6-hydroxy-2-(4-hydroxyphenyl)benzo[b]thiophen-3-yl)(4-(1-((tetrahydrofuran-3-yl)methyl)azetidin-3-yloxy)phenyl)methanone hydrochloride] | 5.01 | 73%

Source: patent publication US9540361B2, “N-substituted azetidine derivatives” (Merck Sharp & Dohme B.V., priority 2010, dated 2017)
